# Results: ChEMBL document CHEMBL1146646, “Benzimidazoles as new potent and selective DP antagonists for the treatment of allergic rhinitis” (Bioorg Med Chem Lett, 2004)
# What was measured:
# [1] = target: T1, Prostaglandin D2 receptor (Homo sapiens, UniProt Q13258); assay: Binding affinity against human recombinant […] D2 was determined using radioligand competition binding assay
# T1 sequence (Q13258 whole entry): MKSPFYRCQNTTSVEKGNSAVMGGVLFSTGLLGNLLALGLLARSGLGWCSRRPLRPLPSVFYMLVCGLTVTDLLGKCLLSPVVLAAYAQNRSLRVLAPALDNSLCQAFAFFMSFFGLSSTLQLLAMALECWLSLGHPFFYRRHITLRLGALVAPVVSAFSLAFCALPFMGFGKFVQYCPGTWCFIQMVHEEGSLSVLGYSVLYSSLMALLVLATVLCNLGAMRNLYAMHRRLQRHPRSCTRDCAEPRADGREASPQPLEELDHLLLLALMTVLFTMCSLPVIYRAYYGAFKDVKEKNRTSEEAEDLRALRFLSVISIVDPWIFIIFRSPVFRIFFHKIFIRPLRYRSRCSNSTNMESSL
# Thromboxane A2 receptor = target: T2, Thromboxane A2 receptor (Homo sapiens, UniProt P21731); assay: Binding affinity against human recombinant Thromboxane A2 receptor was determined using radioligand competition binding assay
# T2 sequence (P21731 whole entry): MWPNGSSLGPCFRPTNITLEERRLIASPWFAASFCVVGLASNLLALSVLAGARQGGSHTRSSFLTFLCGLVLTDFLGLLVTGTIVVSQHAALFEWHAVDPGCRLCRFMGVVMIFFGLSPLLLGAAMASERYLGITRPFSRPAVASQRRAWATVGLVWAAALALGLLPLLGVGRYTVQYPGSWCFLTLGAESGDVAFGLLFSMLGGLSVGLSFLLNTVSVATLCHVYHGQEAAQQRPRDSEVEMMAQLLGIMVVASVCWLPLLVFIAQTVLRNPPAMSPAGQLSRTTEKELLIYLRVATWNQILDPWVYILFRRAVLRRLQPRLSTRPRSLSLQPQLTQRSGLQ
# [2] = target: T1, Prostaglandin D2 receptor; assay: Binding affinity against human recombinant […] D2 in presence of 0.5% human serum albumin
Ki [1] [µM],Ki (Thromboxane A2 receptor) [µM],Ki [2] [µM],SMILES
0.55,> 73,,CSc1ccc(CSc2nc3ccccc3n2Cc2ccc(Cl)cc2)cc1
1.1,9.3,,COC(=O)c1cccc(CSc2nc3ccccc3n2Cc2ccc(Cl)cc2)c1
0.14,11.9,,CC(C)(O)c1ccc(CSc2nc3ccccc3n2Cc2ccc(Cl)cc2)cc1
0.55,3.1,1.5,COC(=O)c1ccc(C[S+]([O-])c2nc3ccccc3n2Cc2ccc(Cl)cc2)cc1 (configuration not stated)
8,7,0.8,COC(=O)c1ccc(-c2nc3ccccc3n2Cc2ccc(Cl)cc2)cc1
0.024,2.2,0.137,COC(=O)c1ccc(CCc2nc3ccccc3n2Cc2ccc(Cl)cc2)cc1
1.2,> 70,,NS(=O)(=O)c1ccc(CSc2nc3ccccc3n2Cc2ccc(Cl)cc2)cc1
1.1,6,,COC(=O)c1ccc(CNc2nc3ccccc3n2Cc2ccc(Cl)cc2)cc1
0.27,1.5,,CC(O)c1ccc(CSc2nc3ccccc3n2Cc2ccc(Cl)cc2)cc1 (configuration not stated)
0.3,3.8,,CC(=O)c1ccc(CSc2nc3ccccc3n2Cc2ccc(Cl)cc2)cc1
0.33,1.5,,COC(=O)Cc1ccc(CSc2nc3ccccc3n2Cc2ccc(Cl)cc2)cc1
3.5,4.7,,O=C(O)c1ccc(CSc2nc3ccccc3n2Cc2ccc(Cl)cc2)cc1
0.8,2,,CN(C)C(=O)c1ccc(CSc2nc3ccccc3n2Cc2ccc(Cl)cc2)cc1
1.5,0.9,5.4,COC(=O)c1ccc(Nc2nc3ccccc3n2Cc2ccc(Cl)cc2)cc1
2.6,> 73,,FC(F)(F)c1ccc(CSc2nc3ccccc3n2Cc2ccc(Cl)cc2)cc1
6.7,4.2,,Clc1ccc(Cn2c(SCc3ccccc3)nc3ccccc32)cc1
4.2,0.95,,N#Cc1ccc(CSc2nc3ccccc3n2Cc2ccc(Cl)cc2)cc1
0.038,> 75,0.067,COC(=O)c1ccc(/C=C/c2nc3ccccc3n2Cc2ccc(Cl)cc2)cc1
6.2,4,> 12,COC(=O)c1ccc(Cc2nc3ccccc3n2Cc2ccc(Cl)cc2)cc1
1.1,2,,CS(=O)(=O)c1ccc(CSc2nc3ccccc3n2Cc2ccc(Cl)cc2)cc1
0.073,9.1,0.297,COC(=O)c1ccc(CSc2nc3ccccc3n2Cc2ccc(Cl)cc2)cc1

SMILES,Ki [1] [µM],Ki (Thromboxane A2 receptor) [µM],Ki [2] [µM]
CCOC(=O)c1cc(CSc2nc3ccccc3n2Cc2ccc(Cl)cc2)cc(C(=O)OCC)c1,> 43,> 71,
Fc1ccc(CSc2nc3ccccc3n2Cc2ccc(Cl)cc2)cc1,> 42,6.1,
Cc1nc(-c2ccc(CSc3nc4ccccc4n3Cc3ccc(Cl)cc3)cc2)no1,0.096,> 74,
Cc1noc(-c2ccc(CSc3nc4ccccc4n3Cc3ccc(Cl)cc3)cc2)n1,0.31,> 74,
